Data from patent US4826814A, “Tripeptide derivatives” (Dainippon Pharmaceutical Co., Ltd., priority 1986, dated 1989).
Starred links: 1 amine or outer side, 2 acyl side, 3 side chain; linkers in the order of their positions; H or OH if unused. Non-standard residues stand in square brackets, D forms with d. Residues, ends and D or L forms follow the SMILES beside them. *: point of attachment. d(γGlu) = O=C(O)[C@@H](CCC(=O)[*:2])N[*:1]; Oic = O=C(O)[C@@H]1C[C@@H]2CCCC[C@@H]2N1; Nicotinoyl = O=C(c1cccnc1)*; Orn = NCCC[C@H](N)C(=O)O; Cbz = O=C(OCc1ccccc1)*

Columns and labels:
[1] = system: renal hypertensive rats; test: Antihypertensive activity after single oral administration in two-kidney Goldblatt type renal hypertensive rats (tail-cuff blood pressure); assay type: in vivo, rat; details: for Charge in pressure at 9 hours administration: blood pressure, renal hypertensive rats, single oral administration; for antihypertensive action after oral administration: in vivo test with rats
Description: Male Sprague Dawley rats (5 weeks old) were subjected to constriction of the left renal artery with a silver clip (internal diameter: 0.22 mm) under light ether anesthesia. The right kidney and renal artery were left intact. About 6-10 weeks after clipping, rats showing a blood pressure above 180 mmHg were used. These treated rats are named two-kidney Goldblatt type renal hypertensive rats and considered as a typical model of reninangiotensin dependent hypertension.
The blood pressure was measured by a tail-cuff method using a programmed electro-sphygmomanometer (PE-300, Narco Biosystem, U. S. A.) after warming at 38° C. for 10 minutes in heating box.
The antihypertensive activity of test compounds was evaluated after single oral administration in renal hypertensive rats (3-5 rats/group).

[2] = system: Male STD-ddy strain mice; test: Toxicity: oral LD50 in mice; assay type: in vivo
Description: Male STD-ddy strain mice weighing about 22 to 25 g were used.

[3] = target: T1, ACE preparation (rabbit lung) (Oryctolagus cuniculus, UniProt P12822); test: In vitro ACE inhibitory activity (hippuryl-L-histidyl-L-leucine substrate); assay type: biochemical; details: 37° C., 30 minutes, pH 8.3
T1 construct: an ACE preparation (rabbit lung); from tissue; host or cells: rabbit lung
T1 sequence (P12822 34-1310): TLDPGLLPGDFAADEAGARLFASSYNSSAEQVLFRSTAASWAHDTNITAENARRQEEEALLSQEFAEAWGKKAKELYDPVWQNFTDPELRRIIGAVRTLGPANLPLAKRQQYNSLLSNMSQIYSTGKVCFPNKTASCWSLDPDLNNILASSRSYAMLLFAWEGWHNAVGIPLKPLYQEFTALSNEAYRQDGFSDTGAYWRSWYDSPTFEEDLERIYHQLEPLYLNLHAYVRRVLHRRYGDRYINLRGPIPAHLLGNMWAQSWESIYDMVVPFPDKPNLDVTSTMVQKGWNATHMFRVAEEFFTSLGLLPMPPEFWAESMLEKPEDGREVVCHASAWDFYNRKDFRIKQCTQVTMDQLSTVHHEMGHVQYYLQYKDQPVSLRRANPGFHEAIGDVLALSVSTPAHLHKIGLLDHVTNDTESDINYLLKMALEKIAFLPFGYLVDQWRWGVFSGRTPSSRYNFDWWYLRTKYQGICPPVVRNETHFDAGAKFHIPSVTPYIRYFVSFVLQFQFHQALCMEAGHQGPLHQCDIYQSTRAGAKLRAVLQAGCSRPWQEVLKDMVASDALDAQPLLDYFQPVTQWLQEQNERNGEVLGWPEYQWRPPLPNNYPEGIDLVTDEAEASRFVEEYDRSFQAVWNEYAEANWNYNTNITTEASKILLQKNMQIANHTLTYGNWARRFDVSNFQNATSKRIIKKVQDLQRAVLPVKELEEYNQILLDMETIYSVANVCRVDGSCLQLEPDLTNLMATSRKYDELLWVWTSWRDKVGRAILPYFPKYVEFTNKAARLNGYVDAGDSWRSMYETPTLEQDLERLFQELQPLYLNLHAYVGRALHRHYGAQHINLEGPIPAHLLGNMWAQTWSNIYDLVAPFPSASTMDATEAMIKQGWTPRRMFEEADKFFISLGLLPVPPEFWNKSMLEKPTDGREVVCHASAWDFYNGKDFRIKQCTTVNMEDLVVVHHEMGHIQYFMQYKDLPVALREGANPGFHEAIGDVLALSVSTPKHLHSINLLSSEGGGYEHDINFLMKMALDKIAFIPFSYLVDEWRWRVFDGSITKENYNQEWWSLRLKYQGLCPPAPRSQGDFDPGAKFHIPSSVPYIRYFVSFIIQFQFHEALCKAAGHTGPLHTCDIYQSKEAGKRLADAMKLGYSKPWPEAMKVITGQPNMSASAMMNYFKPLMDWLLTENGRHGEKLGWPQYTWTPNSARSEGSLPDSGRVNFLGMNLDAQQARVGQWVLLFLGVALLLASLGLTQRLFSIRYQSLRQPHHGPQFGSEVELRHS
Description: The assay medium contained an ACE preparation (rabbit lung), synthetic substrate (hippuryl-L-histidyl-L-leucine 5 mM), NaCl (300 mM) and phosphate buffer (100 mM, pH 8.3). It was mixed to a final volume of 0.300 ml and incubated at 37° C. for 30 minutes in the presence or absence of test compounds. After the reaction was terminated by adding 300 μl of 1N HCl, hippuric acid formed was extracted with 2 volume of ethyl acetate. After ethyl acetate was evaporated and distilled water was added, the hippuric acid was determined from its absorbance at 228 nm by spectrophotometer (Hitachi 100-41).
The degree of ACE inhibition was calculated from activities with and without test compounds. The IC50 value (molar concentration required for the 50% inhibition of ACE activity) was obtained from a dose-inhibition curve.

[4] = target: angiotensin converting enzyme (ACE) (Homo sapiens, UniProt P12821); details: stated by the publication of Ksander et al.; cited from earlier work
angiotensin converting enzyme (ACE), sequence (P12821 30-1306, species assumed): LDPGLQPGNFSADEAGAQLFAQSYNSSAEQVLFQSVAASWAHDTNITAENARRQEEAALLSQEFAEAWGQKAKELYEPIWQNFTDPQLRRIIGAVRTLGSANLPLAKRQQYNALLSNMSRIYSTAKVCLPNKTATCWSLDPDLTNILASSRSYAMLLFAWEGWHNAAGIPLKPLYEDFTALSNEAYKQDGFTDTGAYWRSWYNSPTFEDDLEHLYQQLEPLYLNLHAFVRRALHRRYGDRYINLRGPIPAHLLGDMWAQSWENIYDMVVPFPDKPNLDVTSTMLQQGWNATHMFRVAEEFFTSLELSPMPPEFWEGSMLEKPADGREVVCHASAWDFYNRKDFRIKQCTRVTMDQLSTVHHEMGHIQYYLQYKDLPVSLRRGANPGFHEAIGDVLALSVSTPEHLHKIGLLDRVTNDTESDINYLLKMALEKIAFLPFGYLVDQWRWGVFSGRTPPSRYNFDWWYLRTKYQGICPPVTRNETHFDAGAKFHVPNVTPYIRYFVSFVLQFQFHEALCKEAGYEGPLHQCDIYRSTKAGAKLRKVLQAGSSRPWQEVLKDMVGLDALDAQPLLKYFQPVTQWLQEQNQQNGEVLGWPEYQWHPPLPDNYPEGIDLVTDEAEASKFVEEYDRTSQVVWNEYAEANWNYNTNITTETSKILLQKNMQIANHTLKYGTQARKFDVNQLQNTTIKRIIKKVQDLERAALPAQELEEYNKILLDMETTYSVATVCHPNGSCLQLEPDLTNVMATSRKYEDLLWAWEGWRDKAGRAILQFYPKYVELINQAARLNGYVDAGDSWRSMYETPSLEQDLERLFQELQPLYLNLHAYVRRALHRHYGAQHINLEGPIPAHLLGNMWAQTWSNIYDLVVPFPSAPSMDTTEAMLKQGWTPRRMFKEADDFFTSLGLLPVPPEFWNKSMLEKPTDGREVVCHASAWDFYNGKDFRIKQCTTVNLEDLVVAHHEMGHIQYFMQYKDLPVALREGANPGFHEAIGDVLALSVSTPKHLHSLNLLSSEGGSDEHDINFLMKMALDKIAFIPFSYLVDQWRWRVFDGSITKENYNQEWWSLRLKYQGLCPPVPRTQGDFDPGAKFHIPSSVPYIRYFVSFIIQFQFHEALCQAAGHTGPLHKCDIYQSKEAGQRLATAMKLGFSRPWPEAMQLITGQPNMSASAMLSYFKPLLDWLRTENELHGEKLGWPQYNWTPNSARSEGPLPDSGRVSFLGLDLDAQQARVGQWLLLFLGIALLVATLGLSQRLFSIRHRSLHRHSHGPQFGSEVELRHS

**Q.** For `NCCCC[C@H](NC(=O)OCc1ccccc1)C(=O)N[C@H](CCC(=O)N1[C@H](C(=O)O)C[C@@H]2CCCC[C@@H]21)C(=O)O` [Example 11, (2S,3aS,7aS)-1-(N^2 -Benzyloxycarboxyl-L-lysyl-gamma-D-glutamyl)octahydro-1H-indole-2-carboxylic acid] (Cbz-Lys-[d(γGlu)]-[Oic]-OH), which “Charge in pressure at 9 hours administration” value (shortened to “Charge in pressure”) ([1]; dose of 10 mg/kg) is on record?
**A.** -37

**Q.** Which “oral LD50” value [2] does the source give for `NCCCC[C@H](NC(=O)c1ccc(O)cc1)C(=O)N[C@H](CCC(=O)N1[C@H](C(=O)O)C[C@@H]2CCCC[C@@H]21)C(=O)O` [Example 51, (2S,3aS,7aS)-1-[N^2-(4-Hydroxybenzoyl)-L-lysyl-gamma-D-glutamyl)octahydro-1H-indole-2-carboxylic acid] here?
**A.** more than 3,000 mg per kilogram of body weight

**Q.** What about the IC50 [3] of the same molecule?
**A.** 5.2 nM

**Q.** Which “oral LD50” value [2] does the source give for `NCCCC[C@H](NC(=O)c1cccnc1)C(=O)N[C@H](CCC(=O)N1[C@H](C(=O)O)C[C@@H]2CCCC[C@@H]21)C(=O)O` [Example 15, (2S,3aS,7aS)-1-(N^2 -Nicotinoyl-L-lysyl-gamma-D-glutamyl)octahydro-1H-indole-2-carboxylic acid] (Nicotinoyl-Lys-[d(γGlu)]-[Oic]-OH) here?
**A.** more than 3,000 mg per kilogram of body weight

**Q.** What about the IC50 [3] of the same molecule?
**A.** 6.4 nM

**Q.** For `NCCCC[C@H](NC(=O)OCCc1ccccn1)C(=O)N[C@H](CCC(=O)N1c2ccccc2C[C@H]1C(=O)O)C(=O)O` [Example 38, 1-[N^2-(2-Pyridineethoxycarbonyl)-L-lysyl-gamma-D-glutamyl]indoline-2(S)-carboxylic acid], which “Charge in pressure” value ([1]; dose of 10 mg/kg) is on record?
**A.** -27

**Q.** Which “Charge in pressure” value ([1]; dose of 30 mg/kg) does the source give for `O=C(NCCCC[C@H](NC(=O)OCc1ccccc1)C(=O)N[C@H](CCC(=O)N1c2ccccc2C[C@H]1C(=O)O)C(=O)O)OCc1ccccc1` [1-(N^2,N^6dibenzyloxycarbonyl-L-lysyl-γ-D-glutamyl)indoline-2(S)carboxylic acid, reference compound] here?
**A.** -2

**Q.** What about the “antihypertensive action after oral administration” value [1] of the same molecule?
**A.** do not show any significant antihypertensive action

**Q.** What about the “in vitro inhibition of ACE” value [4] of the same molecule?
**A.** show in vitro inhibition of ACE

**Q.** For `NCCCC[C@H](NC(=O)c1ccncc1)C(=O)N[C@H](CCC(=O)N1[C@H](C(=O)O)C[C@@H]2CCCC[C@@H]21)C(=O)O` [Example 29, (2S,3aS,7aS)-1-(N^2 -Isonicotinoyl-L-lysyl-gamma-D-glutamyl)octoahydro-1H-indole-2-carboxylic acid], which “Charge in pressure” value ([1]; dose of 10 mg/kg) is on record?
**A.** -38

**Q.** For `NCCCC[C@H](NC(=O)C1CCC1)C(=O)N[C@H](CCC(=O)N1[C@H](C(=O)O)C[C@@H]2CCCC[C@@H]21)C(=O)O` [Example 18, (2S,3aS,7aS)-1-(N^2 -Cyclobutanecarbonyl-L-lysl-gamma-D-glutamyl)octahydro-1H-indole-2-carboxylic acid], which “Charge in pressure” value ([1]; dose of 10 mg/kg) is on record?
**A.** -42

**Q.** Which “antihypertensive action after oral administration” value [1] does the source give for `NCCCC[C@H](N)C(=O)N[C@H](CCC(=O)N1c2ccccc2C[C@H]1C(=O)O)C(=O)O` [1-(L-lysyl-γ-D-glutamyl)indoline-2(S)carboxylic acid, reference compound] here?
**A.** do not show any significant antihypertensive action

**Q.** And the “in vitro inhibition of ACE” value [4]?
**A.** show in vitro inhibition of ACE

**Q.** And the IC50 [3]?
**A.** 18.8 nM

**Q.** Which “Charge in pressure” value ([1]; dose of 10 mg/kg) does the source give for `NCCCC[C@H](NC(=O)OC1CCCC1)C(=O)N[C@H](CCC(=O)N1[C@H](C(=O)O)C[C@@H]2CCCC[C@@H]21)C(=O)O` [Example 30, (2S,3aS,7aS)-1-(N^2 -Cyclopentyloxycarbonyl-L-lysyl-gamma-D-glytamyl)octahydro-1H-indole-2-carboxylic acid] here?
**A.** -38

**Q.** Which “Charge in pressure” value ([1]; dose of 10 mg/kg) does the source give for `NCCC[S+]([O-])C[C@H](NC(=O)OCc1ccccc1)C(=O)N[C@H](CCC(=O)N1[C@H](C(=O)O)C[C@@H]2CCCC[C@@H]21)C(=O)O` (stereo partly drawn) [Example 76, (2S,3aS,7aS)-1-[N-Benzyloxycarbonyl-S-(3-aminopropyl)-L-cysteinyl-gamma-D-glutamyl]octahydro-1H-indole-2-carboxylic acid sulfoxide] here?
**A.** -31

**Q.** Which IC50 [3] does the source give for `NCCC[C@H](NC(=O)OCc1ccccc1)C(=O)N[C@H](CCC(=O)N1[C@H](C(=O)O)C[C@@H]2CCCC[C@@H]21)C(=O)O` [Example 14, (2S,3aS,7aS)-1-(N^2 -Benzyloxycarbonyl-L-ornithinyl-gamma-D-glutamyl)octahydro-1H-indole-2-carboxylic acid] (Cbz-[Orn]-[d(γGlu)]-[Oic]-OH) here?
**A.** 4.9 nM

**Q.** With `NCCCC[C@H](NC(=O)OC1CCC1)C(=O)N[C@H](CCC(=O)N1[C@H](C(=O)O)C[C@@H]2CCCC[C@@H]21)C(=O)O` [Example 32, (2S,3aS,7aS)-1-[N^2-(Cyclobutyloxycarbonyl)-L-lysyl-gamma-D-glutamyl]octahydro-1H-indole-2-carboxylic acid] as the molecule, how does the IC50 [3] read?
**A.** 4.6 nM

**Q.** With `NCCCC[C@H](NC(=O)OCCC1CCCCC1)C(=O)N[C@H](CCC(=O)N1c2ccccc2C[C@H]1C(=O)O)C(=O)O` [Example 34, 1-(N^2 -Cyclohexylethoxycarbonyl-L-lysyl-gamma-D-glutamyl)indoline-2(S)-carboxylic acid] as the molecule, how does the IC50 [3] read?
**A.** 8 nM

**Q.** With `NCCCC[C@H](NC(=O)c1cccs1)C(=O)N[C@H](CCC(=O)N1[C@H](C(=O)O)C[C@@H]2CCCC[C@@H]21)C(=O)O` [Example 52, (2S,3aS,7aS)-1-[N^2-(2-Thiophenecarbonyl)-L-lysyl-gamma-D-glutamyl]octahydro-1H-indole-2-carboxylic acid] as the molecule, how does the IC50 [3] read?
**A.** 4.5 nM

**Q.** For `NCCCC[C@H](NC(=O)C1CCCCC1)C(=O)N[C@H](CCC(=O)N1c2ccccc2C[C@H]1C(=O)O)C(=O)O` [Example 71, 1-(N^2 -Cyclohexylcarbonyl-L-lysyl-gamma-D-glutamyl)indoline-2(S)-carboxylic acid], which IC50 [3] is on record?
**A.** 27 nM

**Q.** For `NCCCC[C@H](NC(=O)OCCc1ccccc1)C(=O)N[C@H](CCC(=O)N1[C@H](C(=O)O)C[C@@H]2CCCC[C@@H]21)C(=O)O` [Example 26, (2S,3aS,7aS)-1-[N^2 -Phenethyloxycarbonyl-L-lysyl-gamma-D-glutamyl]octahydro-1H-indole-2-carboxylic acid], which IC50 [3] is on record?
**A.** 4.6 nM
